Measured values from patent US7910574B2, “Treatments for the control of schistosomiasis” (Illinois State University, priority 2007, dated 2011).

Key:
[1] = system: parasite lactate dehydrogenase; test: Lactate dehydrogenase control enzyme activity in homogenates of treated worms; type: cell-based, Schistosoma mansoni; settings: 10 μM, treated worm homogenates
[2] = system: murine myeloma cell line SP2/0; test: Cytotoxicity assay (sulforhodamine B); type: cell-based
Method: To examine if furoxan is tolerated by mammalian cells, we incubated the murine myeloma cell line SP2/0 with the drugs at given concentrations and monitored cell viability at 24 hr and 120 hr. At 120 hr in 2 μM furoxan ˜25% mortality of myeloma cells was observed compared to 100% mortality of adult S. mansoni worms at the same concentration. Myeloma cells tolerated furoxan at concentrations as high as 100 μM. Differential cytotoxicity of furoxan on the worm survival and myeloma cells were also seen after 24 hrs of drug application.
Cytotoxicity assays were performed using sulforhodamine B to determine cellular protein content. Murine myeloma cell line SP2/0 was cultured in 96-well microtiter plates containing 0.2 ml of RPMI-1640 per well at a cell density of 900 per well at 37° C. in 5% CO2. Cells were treated with drug concentrations (or drug carrier alone) for times as indicated. After treatment, cells were fixed with 10% TCA at 4° C. for 1 hr. Fixed cells were rinsed to remove fixative and then stained in 0.4% (wt/vol) sulforhodamine B (Sigma) in 1% acetic acid for 35 min. After washing with 1% acetic acid and dye extraction in 10 mM Tris (pH 10.5), plates were read at A564 nm. The A564 nm of drug-treated cells was compared to carrier-only-treated cells.

S. mansoni infected mice = test: In vivo drug treatment of S. mansoni infected mice; design: species or system Schistosoma mansoni; settings: for decrease in worm burden vs control infected mice: perfusion day 49
[3] = molecular target: recombinant S. mansoni TGR (Schistosoma mansoni, UniProt Q962Y6); test: NO release with recombinant SmTGR (ABTS oxidation); type: biochemical; settings: 10 μM oxadiazole, 15 nM SmTGR, P<0.05
Method: Because oxadiazoles are known to release nitric oxide (NO) at physiological levels of thiols, we examined if NO release played a part in their mechanism of action (TGR inhibition and worm killing). […] The NO releasing capability of oxadiazoles was next tested with recombinant S. mansoni TGR enzyme with and without NADPH.
NO release by different oxadiazoles was determined by 2,2′-azino-bis(3-ethylbenzthiazoline-6-sulphonic acid) [ABTS, Sigma] oxidation method [Nims et al, Methods 7, 48-54; 1995]. Different oxadiazoles at 10 μM were incubated at RT for 50 minutes with 15 nM recombinant SmTGR in the presence or absence of 100 μM NADPH. The (oxadiazole+SmTGR/±NADPH) mixture was then added to an aerobic PBS, pH 7.4, containing 5 mM ABTS. The absorbance of the resulting green ABTS^+ were measured at A660. A conversion factor was calculated to adjust the readings from 1 ml reaction to 96-well plate. The concentrations of the released NO were calculated as a percentage of the added oxadiazoles. Each reaction was done in triplicate and the data is the average of three independent experiments. […] The slope of the regression line was calculated and used to recalculate the data at A660 in 200 μl reaction [Nims et al, Methods 7, 48-54; 1995].

adult S. mansoni worms [4] = system: adult S. mansoni worms
[5] = 10 mg/kg once a day, 5 days, ip; cited from earlier work
TGR = TGR (Schistosoma mansoni, UniProt Q962Y6); test: Mode of TGR inhibition; settings: through release of NO
adult S. mansoni worms [6] = test: microbe, parasite or virus in culture; settings: Schistosoma mansoni
[7] = molecular target: parasite TGR (thioredoxin reductase activity) (Schistosoma mansoni, UniProt Q962Y6); test: Thioredoxin reductase activity of TGR in homogenates of treated cultured worms; settings: 10 μM, 18 hrs treatment of cultured worms
Method: (§1) Freshly perfused adult S. mansoni worms were cultured with 10 μM furoxan or 50 μM NBPPTA. […] The activity of lactate dehydrogenase was monitored as a control enzyme.
(§2) Enzyme assays were performed at 25° C. in 0.1 M potassium phosphate, pH 7.4, 10 mM EDTA. Thioredoxin reductase activity of TGR was determined using either 3 mM 5,5′ dithiobis(2-nitrobenzoic acid) (DTNB, Ellman's reagent) or 16 μM recombinant S. mansoni thioredoxin-1 (Alger et al 2002). One enzyme unit was defined as the NADPH-dependent production of 2 μmol of 2-nitro-5-thiobenzoic acid per minute using ε412 nm=13.6 mM^−1 cm^−1 or the consumption of 1 μmol of NADPH (ε340 nm=6.22 mM^−1 cm^−1) during the first three minutes. Glutathione reductase activity was determined with 100 μM GSH disulfide and 100 μM NADPH by measuring the decrease in A340 nm due to consumption of NADPH (ε340 nm=6.22 mM^−1 cm^−1) during the first three minutes. Activity of the control enzyme lactate dehydrogenase (LDH) was determined with 10 μM sodium pyruvate and 100 μM NADPH. Each assay was done in triplicate and each experiment was repeated three times.
(§3) Compounds were dissolved in dimethylsulfoxide (DMSO) and added at concentrations indicated to freshly perfused worms in RPMI1640 containing 25 mM Hepes, pH 7, 150 units/ml penicillin, 125 μg/ml streptomycin, and 10% fetal calf serum (Cell Grow, Fisher). […]

[8] = molecular target: parasite TGR (GSH reductase activity) (Schistosoma mansoni, UniProt Q962Y6); test: Glutathione reductase activity of TGR in homogenates of treated cultured worms; settings: 10 μM, 18 hrs treatment of cultured worms
Method: as §1, §2, §3

[9] = system: S. mansoni infections in mice; settings: juvenile liver parasites targeted, mouse model; cited from earlier work

recombinant S. mansoni TGR, sequence (Q962Y6 1-598): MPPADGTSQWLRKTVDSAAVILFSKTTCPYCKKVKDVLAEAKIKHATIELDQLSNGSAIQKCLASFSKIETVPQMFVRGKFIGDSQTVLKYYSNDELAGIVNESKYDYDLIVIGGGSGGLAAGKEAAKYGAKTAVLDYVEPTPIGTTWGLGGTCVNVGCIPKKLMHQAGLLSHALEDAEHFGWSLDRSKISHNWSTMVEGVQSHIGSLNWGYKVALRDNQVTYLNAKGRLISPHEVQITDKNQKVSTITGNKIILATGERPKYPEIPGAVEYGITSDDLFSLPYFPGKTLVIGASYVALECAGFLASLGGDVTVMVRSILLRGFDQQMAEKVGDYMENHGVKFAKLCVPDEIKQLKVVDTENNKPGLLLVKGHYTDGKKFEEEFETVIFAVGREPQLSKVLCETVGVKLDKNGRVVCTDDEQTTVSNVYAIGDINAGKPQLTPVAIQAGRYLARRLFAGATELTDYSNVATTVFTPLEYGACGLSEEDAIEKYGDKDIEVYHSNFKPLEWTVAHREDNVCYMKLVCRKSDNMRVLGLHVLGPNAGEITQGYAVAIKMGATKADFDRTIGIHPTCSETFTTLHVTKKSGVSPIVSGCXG
parasite TGR (thioredoxin reductase activity), sequence (Q962Y6 1-598): as above
parasite TGR (GSH reductase activity), sequence (Q962Y6 1-598): as above
TGR, sequence (Q962Y6 1-598): as above

N#Cc1c(-c2ccccc2)no[n+]1[O-] [Analogue 9]
activity of parasite lactate dehydrogenase vs carrier only treated worms [1]: no significant change | concentration tolerated by myeloma cells [2]: ≤ 100 µM | mortality of myeloma cells ([2]; 2 μM, 120 hr): ~25% | reduction in worm burdens, all trials in mice (S. mansoni infected mice; 10 mg/kg, regardless of lifecycle stage): ≥ 89% | adult parasites recovered (S. mansoni infected mice; early stage treatment (treatment 1), total from the eight mice infected): one | liver egg granulomas (S. mansoni infected mice; treatment 1 (skin stage)): no signs of egg granulomas | hepatomegaly vs control infected mice (S. mansoni infected mice; treatment 1 (skin stage), P<0.0001): reduction of hepatomegaly | decrease in worm burden vs control infected mice (S. mansoni infected mice; treatment 1: 10 mg/kg ip once daily x5 from day 1 after infection (skin stage)): > 99% | number of liver granulomas vs control infections (S. mansoni infected mice; treatment 2 (juvenile liver stage)): considerably reduced | hepato- and splenomegaly vs control infected mice (S. mansoni infected mice; treatment 2 (juvenile liver stage), P<0.0001): dramatic reductions in hepato- and splenomegaly | decrease in worm burden vs control infected mice (S. mansoni infected mice; treatment 2: 10 mg/kg ip once daily x5 from day 23 (juvenile liver stage)): 89% | egg-induced liver granulomas vs control group (S. mansoni infected mice; treatment 3 (adult stage)): greatly reduced number | hepatomegaly vs control group (S. mansoni infected mice; treatment 3 (adult stage), P<0.0001): dramatic reduction in hepatomegaly | decrease in worm burden vs control infected mice (S. mansoni infected mice; treatment 3: 10 mg/kg ip once daily x5 from day 37 (adult egg laying)): 94% | NO release relative to the other oxadiazoles tested ([3]; +NADPH): 10 × | NO release relative to the other oxadiazoles tested ([3]; −NADPH): 3 × | activity against adult parasites (adult S. mansoni worms [4]; 0.38 μg/ml, longer times): active | time to kill worms (adult S. mansoni worms [4]; 2 μM): 120 h | worm viability with NO scavenger (adult S. mansoni worms [4]; 10 μM furoxan with 100 μM carboxy-PTIO): extended | parasite death (adult S. mansoni worms [4]; 10 μM, within 24 hr, axenically cultured adult worms): 100% | tolerability in mice [5]: well tolerated | mode of inhibition of TGR (TGR): time-dependent irreversible inhibition | inhibition at 1.87 µg/mL (adult S. mansoni worms [6]; 24 h, read-out: inhibition of motility of adult parasites): 100% | mortality at 2 µM (adult S. mansoni worms [6]; 120 h, read-out: mortality of adult S. mansoni worms): 100% | reduction of thioredoxin reductase activity of parasite TGR vs carrier control [7]: 83% | reduction of GSH reductase activity of parasite TGR vs carrier control [8]: 93%

O=C(C1CCCCC1)N1CC(=O)N2CCc3ccccc3C2C1 (stereo not drawn) [PZQ, praziquantel]
reduction in worm burdens [9]: 25-30%
